Literature values as cited in patent US20070281009A1, “N-Acetylglucosamine Tablet Disintegrating In Oral Cavity And Process For Producing The Same” (Yaizu Suisankagaku Industry Co., Ltd., priority 2004, published 2007).

Key:
arthropathy = settings: human, 500 mg/day or 1,000 mg/day dissolved in milk
skin beauty = settings: human, oral, 1,000 mg/day
[1] = test system: synthesis of hyaluronic acid

Structure (SMILES)	Effect of ameliorating arthropathy (arthropathy)	Effect on enhancing skin beauty (skin beauty)	Ability to promote synthesis of hyaluronic acid [1]
CC(=O)N[C@H]1C(O)O[C@H](CO)[C@@H](O)[C@@H]1O (stereo partly drawn) [N-acetylglucosamine]	confirmed to provide an effect of ameliorating arthropathy	effective	
CC1=C(/C=C/C(C)=C/C=C/C(C)=C/C=C/C=C(C)/C=C/C=C(C)/C=C/C2=C(C)CCCC2(C)C)C(C)(C)CCC1 [β-carotene]			known to have an ability to promote synthesis of hyaluronic acid
